Measured values taken from the supplement of paper PMC5770543.
± gives the standard deviation.

Tests used:
[1] = test system: Plasmodium falciparum 3D7; assay: EC50 growth inhibition (60 h, SYBR Green); conditions: stage: ring-stage start
[2] = test system: Toxoplasma gondii RH tachyzoites; assay: % growth inhibition vs DMSO (48 h luciferase); higher = more inhibition; conditions: 10 µM;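 note: tested in triplicate wells of 96-well plates on confluent HFF monolayers, with 1% DMSO wells as negative control in four replicates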
[3] = test system: Plasmodium falciparum 3D7; assay: % inhibition of schizont-to-ring transition vs DMSO; higher = more inhibition
How it was run: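 Schizont-to-ring transition inhibition compares new ring formation with that in vehicle controls. Synchronised P. falciparum schizonts (about 40–42 hours post-invasion, 1% parasitemia, 2.5% hematocrit, AlbuMAX-supplemented RPMI) were exposed to 1, 3 or 10 µM compound, after which rings were counted by Hoechst 33342 flow cytometry across three experiments.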

SMILES	EC50 growth inhibition [1] [nM]	% growth inhibition [2] [%]	% inhibition of schizont-to-ring transition ([3]; 1 µM) [%]	% inhibition of schizont-to-ring transition ([3]; 3 µM) [%]	% inhibition of schizont-to-ring transition ([3]; 10 µM) [%]
N#Cc1nc(Cc2cccc3ccccc23)oc1N1CCN(C(c2ccccc2)c2ccccc2)CC1	5260	44.8 ± 8.8	21.5	27.3	52.8
O=C(NCc1ccco1)C1CCN(S(=O)(=O)c2ccc(Br)cc2)CC1	397	52.8 ± 11	14.5	30.4	54.8
CCOc1c(Br)cc(C2C(C(=O)OC)=CN(C)C=C2C(=O)OC)cc1OC	480	70.4 ± 17	49.6	75.9	79.6
Cn1c(=O)n(C)c2cc(CNCCNc3ccnc4cc(Cl)ccc34)ccc21	64.8	25.7 ± 41	38.4	37.2	33.7
Nc1ccc(-c2nc3cc(Cc4ccc5[nH]c(-c6ccc(N)cc6)nc5c4)ccc3[nH]2)cc1	218	59.1 ± 11	51.3	70.1	76
Cc1cc(Nc2ccc(Cl)cc2)n2nc(C(F)(F)F)nc2n1	56.2	62.7 ± 3.6	52.9	59.3	58.4
Cc1ccc(-c2cc3c(SCC(=O)Nc4cc(C(F)(F)F)ccc4Cl)nccn3n2)cc1	2140	48.6 ± 19	23.9	24.5	30.8
O=C(Nc1ccccc1O)c1ccc(-c2ccc(Cl)cc2Cl)o1	1670	23.8 ± 5.9	28.6	26.9	48
Cc1ccc2c(C)nc(Nc3nc(C)cc(-c4ccccc4)n3)nc2c1	6670	70.4 ± 25	17.7	37.8	55.7
CCOc1ccc(Nc2ccnc3cc(Cl)ccc23)cc1	3740	64.1 ± 7.2	23.3	27.2	30
Cc1cc(NCCN2CCCCC2)c2ccc3ccccc3c2n1	123	78.3 ± 6.7	46.4	52.1	69.7
Oc1c(CN2CCN(c3ccccc3F)CC2)cc(Br)c2cccnc12	7420	74.2 ± 13	7.79	26.8	49.7
CC(=O)c1ccc(NC(=O)CSc2nc(-c3ccccc3Cl)ns2)cc1	412	78.8 ± 6.6	34	71.8	76.5
COc1cccc(C=Cc2nc(=O)c3ccccc3o2)c1OC	317	70.48 ± 0.68	34.9	40.3	49.7
Cc1ccc(N2C(=O)C3C(C2=O)C2(c4ccccc4)C(=O)C3(c3ccccc3)C(c3ccccc3)=C2c2ccccc2)cc1 (stereo not given)	4250	55.5 ± 9.4	< 0	< 0	24.4
CCOC(=O)c1cnc2ccc(CC)cc2c1O	482	78.7 ± 3.3	49.9	61.3	62.8
COc1ccc(-c2cn3c(C(=O)Nc4ccccc4Cl)c(-c4ccccc4)c4c3n2CCCC4)cc1	7130	42.7 ± 28	12.5	30.4	62.3
COc1ccccc1CNC(=O)CCn1c(=O)[nH]c2ccccc2c1=O	663	79.9 ± 5.7	8.85	11.5	18.6
OC1CCCCC1C1(NC(=S)Nc2ccccc2)CCCCC1 (stereo not given)	1510	64 ± 2.9	23.3	45.7	53.4
COc1ccc(C(=O)C2CC2c2ccc(Cl)cc2)cc1 (stereo not given)	2700	22 ± 8.6	8.22	39.3	58.3
Cc1ccc(Cn2c(N3CCC(C(=O)NCc4cccs4)CC3)nc3ccccc32)cc1	744	66.1 ± 3.6	47.3	68	69.8
CCOC(=O)c1cnc2c(C)cccc2c1Nc1ccc(C(C)=O)cc1	550	79.3 ± 2.5	28.3	45.9	51.5
O=C(CCl)NCCOc1ccc(Cl)cc1Cl	717	66.2 ± 5.8	12.1	24.7	43.1
CC1CN(C(=O)c2sc3ccccc3c2Cl)CC(C)O1 (stereo not given)	29.1	74 ± 3.4	15.7	21.4	24.2
COc1ccc(-c2cc(=O)oc3c4c(ccc23)OCN(Cc2ccc(F)cc2)C4)cc1	4110	63.1 ± 3.1	< 0	10	48.3
C=C(C)CCC(C)N1CCC(N2CCC(C(=O)NCCc3ccccc3)CC2)CC1 (stereo not given)	3960	20.9 ± 16	< 0	1.71	48
CN(C)c1ccc(-c2nc3cc(N)ccc3[nH]2)cc1	3020	40.4 ± 8.4	5.79	18.4	66.7
CCOC(=O)c1c(C)n(-c2ccc(Cl)cc2)c2ccc(OC(=O)C=Cc3ccccc3)cc12	1020	69.3 ± 5	5	7.44	21.6
